PubChem BioAssay AID1996
In brackets after ≈: the same amount, converted by molar mass.

Conditions: buffer; pH 7.4; 200.0 µM

Structure (SMILES)	solubility kinetic [µg/mL]
O=C1c2ccccc2C(=O)N1c1ccc(Cc2ccncc2)cc1	44.9 (≈ 143 µM)
CCOC(=O)c1ccsc1NC(=O)c1ccco1	< 0.6
CCC(=O)OCC(=O)Nc1cc([N+](=O)[O-])ccc1Cl	> 43
COc1ccc(C(=O)N2CCc3c([nH]c4ccccc34)C2C(F)(F)F)cc1 (centres undefined)	1.1 (≈ 2.94 µM)
O=C1OC(Nc2ccc(F)c([N+](=O)[O-])c2)c2ccccc21 (centres undefined)	42.6 (≈ 148 µM)
CCOC(=O)C1=C(C)N(C)C(=S)NC1c1c(OCC)ccc2ccccc12 (centres undefined)	< 0.4
CCn1ncc(-c2csc(N)n2)c1C	> 31.2
CCN(c1ccccc1)S(=O)(=O)c1cccc(C(=O)Nc2ccc(C)cn2)c1	9.7 (≈ 24.5 µM)
CSCCC(NC(=O)c1ccccc1Cl)C(=O)NCCc1ccccn1 (centres undefined)	> 58.8
COc1ccc(NC(=O)C(CC(=O)O)Cc2ccc(Cl)cc2)cc1 (centres undefined)	> 52.2
Cc1ccc(NC(=O)CN2C(=O)S/C(=C/c3ccncc3)C2=O)cc1	2.2 (≈ 6.23 µM)
Cc1ccc(C(=O)CCC(=O)Nc2ccccc2C)cc1C	< 0.6
O=C(Nc1ccc(S(=O)(=O)Nc2ncccn2)cc1)C(F)(F)F	> 51.9
Cc1ccc(NC(=O)Nc2cnccn2)c(C)c1	2.2 (≈ 9.08 µM)
O=C(NC(=O)N1CCCCCC1)c1ccccc1	> 36.9
CN(C)C(=S)Nc1cccc(F)c1	28.5 (≈ 144 µM)
CC1CC(C)(C)NC(=S)N1CCCC(=O)Nc1ccccc1F (centres undefined)	> 50.6
COC(=O)c1ccccc1NC(=O)c1cc(-c2ccco2)on1	0.6 (≈ 1.92 µM)
C#CCOC(=O)Nc1cnccc1C(F)(F)F	> 36.6
Cc1cccc(N2C(=O)CC(c3ccc(F)cc3)C3=C2COC3=O)c1 (centres undefined)	> 50.6
NC1=C([N+](=O)[O-])C(c2ccc3c(c2)OCO3)C2=C(CCCC2=O)O1 (centres undefined)	48.4 (≈ 147 µM)
CC(C)C1/C(=N/O)CC(c2ccccc2)NC1c1ccccc1 (centres undefined)	< 0.3
CCCCN1C(=O)C(=O)N(CC(=O)NC2CCCc3ccccc32)C1=O (centres undefined)	50.9 (≈ 142 µM)
O=C(Nc1nc2cc3c(cc2s1)OCO3)C1CCCCC1	< 0.3

Structure (SMILES)	solubility kinetic [µg/mL]
Cc1cc(C)c(C#N)c(SCC(=O)C2CC2)n1	3.6 (≈ 14.6 µM)
CCCCN(C(=O)CN(C)CC(=O)Nc1cccc(OC)c1)c1c(N)n(CCCC)c(=O)[nH]c1=O	> 73.3
Cc1noc(C)c1C(=O)OCC(=O)Nc1ccc(N2CCOCC2)cc1	7.6 (≈ 21.1 µM)
Cc1ccc(C(=O)NCCCNC(=O)Cc2ccccc2)cn1	> 46.7
CSc1ccc(Cl)c(C(=O)Nc2ccc(C)cn2)c1	4.8 (≈ 16.4 µM)
Cc1noc(NS(=O)(=O)c2ccc(NS(=O)(=O)c3ccc(Cl)cc3)cc2)c1C	> 66.3
C=CCOc1cccc(/C=C\c2nc(O)c([N+](=O)[O-])c(=O)[nH]2)c1	> 47.3
Cc1[nH]c2ccccc2c1C(=O)CN1C(=O)C(=O)N(C2CCCC2)C1=O	3.2 (≈ 9.06 µM)
Cc1ccccc1N1CCN(Cc2nc(Cc3ccccc3)no2)CC1	11 (≈ 31.6 µM)
COc1ccc(CN2CCSCC2)c(C)c1C	5.7 (≈ 22.7 µM)
COc1ccccc1Cn1c(=S)[nH]c2ccc(F)cc2c1=O	1.6 (≈ 5.06 µM)
Cc1ccc(/C(O)=C/c2nc3cc(C)ccc3oc2=O)cc1	12 (≈ 40.9 µM)
COCCNS(=O)(=O)c1cc(OC)ccc1OC	> 41.3
O=[N+]([O-])c1ccc(S(=O)(=O)Nc2ccc3c(c2)OCCO3)cc1	45.2 (≈ 134 µM)
C/C(=N\O)C(C)(C)Nc1ccccc1F	28.1 (≈ 134 µM)
Cc1ccc(S(=O)(=O)/N=C/c2c(O)ccc3ccccc23)cc1	30.8 (≈ 94.7 µM)
S=C(NCc1ccc(Cl)cc1)NCc1ccco1	39.5 (≈ 141 µM)
CCCCN(Cc1cc2cccc(C)c2[nH]c1=O)S(C)(=O)=O	41 (≈ 127 µM)
COc1ccc(C(=O)Nc2ccc3ccccc3n2)cc1OC	0.7 (≈ 2.27 µM)
NCCc1cnc[nH]1	14.1 (≈ 127 µM)
C[C@H](NCc1c[nH]c2ccccc12)c1ccccc1	> 37.6
COc1ccccc1N(CC(=O)Nc1ccc(C)cc1Cl)S(=O)(=O)c1cccs1	6.9 (≈ 15.3 µM)
COc1ccc(OCC(=O)N(C)CC2COc3ccccc3O2)cc1 (centres undefined)	> 51.5
CC(=O)NC(=O)COC(=O)c1ccc2ncsc2c1	27.5 (≈ 98.8 µM)

Structure (SMILES)	solubility kinetic [µg/mL]
COC(=O)/C=C/c1cnc2ccccc2c1	> 32
Cc1ccc(NC(=O)CNC(=O)Cc2cccc3ccccc23)nc1	11.6 (≈ 34.8 µM)
O=C(Nc1ccc(S(=O)(=O)N2CCOCC2)cc1)c1ccccc1	> 52
COc1ccc(Cl)cc1C(=O)Nc1ccc2c(c1)OCCO2	0.9 (≈ 2.81 µM)
O=C(CCc1ccc(O)c(O)c1)N/N=C/c1ccc2c(c1)OCO2	> 49.2
COc1ccccc1NC(=O)COC(=O)CNC(=O)C1CCCCC1	> 52.3
CC(=O)Nc1ccc(OCCC[n+]2ccccc2)cc1.[Cl-]	> 46
CCOC(=O)c1c(C)[nH]c(C(=O)N2CCC(C(=O)OCC)CC2)c1C	> 52.6
CCNC(=S)N1CCC(C(N)=O)CC1	> 32.3
CCCCC(=O)NC1(C(F)(F)F)NC(=O)N(Cc2ccccc2)C1=O (centres undefined)	46.1 (≈ 129 µM)
Cc1c(C(=O)N(C)Cc2cccc(F)c2)oc2c(Cl)cccc12	3.6 (≈ 10.9 µM)
O=C1CSCC(=O)N1Cc1ccc(Cl)cc1Cl	38.2 (≈ 132 µM)
CCC(C)(C)NC(=O)C1CC(=O)N(CCc2ccc(F)cc2)C1 (centres undefined)	> 48.1
COc1ccccc1-c1noc(-c2ccccc2C(=O)NCc2ccco2)n1	49.4 (≈ 132 µM)
CC(=O)OC(C(=O)NC1CCCCC1)c1ccccc1Cl (centres undefined)	39.1 (≈ 126 µM)
O=C(O)C1CCN(C(=O)c2ccc3c(c2)OCO3)CC1	36.2 (≈ 131 µM)
CCC(C)NC(=O)CN1C(=O)NC2(CCOc3ccccc32)C1=O (centres undefined)	> 49.7
CN(CC(=O)Nc1ccccc1)CC(=O)Nc1ccc(F)cc1	30.7 (≈ 97.4 µM)
Cc1cc(C)cc(N(CCC#N)C(=O)CSc2nc3ccccc3c(=O)[nH]2)c1	28.8 (≈ 73.4 µM)
CCCCOC(=O)C1=C(C)NC(=O)NC1c1ccc(OC)cc1 (centres undefined)	14.6 (≈ 45.9 µM)
CCn1c(=S)[nH]c2cc(S(=O)(=O)N3CCOCC3)ccc21	34.2 (≈ 104 µM)
N/C(=N\OC(=O)CC1CCCCC1)c1cccc(Br)c1	0.6 (≈ 1.77 µM)
CCC(NC(=S)NCc1ccc(F)cc1)c1ccc(C)cc1 (centres undefined)	0.8 (≈ 2.53 µM)
O=C(Nc1ccc2[nH]c(=O)[nH]c2c1)Nc1ccc(F)cc1F	3.7 (≈ 12.2 µM)

Structure (SMILES)	solubility kinetic [µg/mL]
COc1ccc(C(=S)N2CCCC2)cc1Br	> 45
COc1ccc(OC)c(COC(=O)c2cccc(S(=O)(=O)N3CCCCC3)c2)c1	10.1 (≈ 24.1 µM)
O=C(NCc1ccc(F)cc1)c1ccc(Br)o1	37.9 (≈ 127 µM)
CCOc1ccc2nc(N/C(N)=N/S(C)(=O)=O)nc(C)c2c1	2.3 (≈ 7.11 µM)
COc1ccc(C(=O)C2CCCN(S(=O)(=O)C(C)C)C2)c(C)c1 (centres undefined)	45.4 (≈ 134 µM)
O=C(Cc1cccs1)NCCCc1ccccc1	> 38.9
CSc1ncccc1C(=O)OCC(=O)NC(C)CCc1ccccc1 (centres undefined)	29.1 (≈ 81.2 µM)
COc1cccc(/C=C(/C(=O)OCC(N)=O)c2ccccc2)c1	> 46.7
COc1ccc(Cl)cc1NC(=O)NCc1ccccn1	41.6 (≈ 143 µM)
CCOC(=O)N1CCN(CCc2ccccc2)CC1	30.6 (≈ 117 µM)
S=C(Nc1cccc(Cl)c1)N1CCN(c2ccccn2)CC1	0.5 (≈ 1.5 µM)
COc1cccc(-c2nc3ccc([N+](=O)[O-])cc3o2)c1	< 0.3
Cc1ccc(Cl)cc1NC(=O)c1ccccn1	6.3 (≈ 25.5 µM)
O=c1[nH]c2ccccc2n2c(=S)[nH]nc12	> 32.7
O=C(NC1CCCCCC1)C(=S)NCc1ccccc1	1.6 (≈ 5.51 µM)
COc1cc(CCC(=O)Nc2ncc(C)s2)cc(OC)c1OC	18.8 (≈ 55.9 µM)
Cc1ccc(C(O)(CCN2CCCCC2)c2ccccc2)cc1.Cl (centres undefined)	> 51.9
COc1ccc(CCNC(=O)c2cnc3ccccc3n2)cc1	40.2 (≈ 131 µM)
O=C(COC(=O)c1cccc(Cl)c1)Nc1cccc(S(=O)(=O)NC2=NCCC2)c1	63.3 (≈ 145 µM)
O=C(NCc1ccco1)C1CC(c2ccc(Cl)cc2)=NO1 (centres undefined)	2.9 (≈ 9.52 µM)
O=C(COC(=O)c1ccccc1O)NC(c1ccccc1)c1ccccc1	5.9 (≈ 16.3 µM)
CCN(CC)CCN=Cc1c(O)n(Cc2ccco2)c(=O)[nH]c1=O	> 50.2
Cc1ccc2cccc(OCC(=O)NCCC3=CCCCC3)c2n1	46.5 (≈ 143 µM)
C=CCNc1nc(N)c([N+](=O)[O-])c(N2CCCCCC2)n1	40.4 (≈ 138 µM)

Structure (SMILES)	solubility kinetic [µg/mL]
CCOc1ccc(N2C(=O)c3ccccc3NC2(C)CC)cc1 (centres undefined)	> 46.6
CCOc1cc(C(=O)NC2CC(C)(C)NC(C)(C)C2)cc(OCC)c1OCC	> 58.9
O=C1CC(N(O)c2ccccc2)C(=O)N1c1ccc(Cl)c(Cl)c1 (centres undefined)	9.8 (≈ 27.9 µM)
COc1ccccc1NC(=O)C1CC(C(C)C)OC1=O (centres undefined)	38.3 (≈ 138 µM)
Cc1ccc(N(CC(=O)N2CCOCC2)S(C)(=O)=O)cc1Cl	> 52
COc1cccc(-c2cc(C(=O)NCc3cccs3)no2)c1	< 0.3
O=C1ON=C(c2cccc([N+](=O)[O-])c2)/C1=C/c1ccc(O)cc1	> 46.5
Cl.NCCNC(=O)c1c(O)c2cccc3c2n(c1=O)CCC3	48.3
N#CC(=C=[N-])c1nc2ccccc2nc1-[n+]1ccccc1	7.3 (≈ 26.9 µM)
O=C(COc1ccc(Cl)cc1Cl)NCC1(N2CCOCC2)CCCCC1	1.9 (≈ 4.73 µM)
COc1ccc(CN(C)C(=O)c2ccc3ccccc3n2)cc1F	> 48.7
COc1ccc(C2(C)NC(=O)NC2=O)cc1OC (centres undefined)	> 37.5
CC(C)(Oc1ccc(CCNC(=O)c2ccc(Cl)cc2)cc1)C(=O)O	> 54.3
COc1ccc(CC2SC(=Nc3ccc(F)cc3)NC2=O)cc1 (centres undefined)	2.3 (≈ 6.96 µM)
CC(=O)Oc1ccc(C(=O)NCc2ccco2)cc1	37.6 (≈ 145 µM)
COc1ccccc1/C=C/C(=O)NCCc1ccccn1	41.9 (≈ 148 µM)
COC(=O)c1cccc(NS(C)(=O)=O)c1	> 34.4
COc1cc([N+](=O)[O-])ccc1NC(=O)CSc1nccn1C	42.5 (≈ 132 µM)
O=C(O)CNS(=O)(=O)c1c(Cl)cccc1Cl	> 42.6
Br.Nc1ncc([N+](=O)[O-])cc1Br	> 44.8
O=C(Nc1csc([N+](=O)[O-])c1)Nc1ccccc1Cl	1 (≈ 3.36 µM)
NC(=O)C1(C(N)=O)OC1c1ccc(Cl)c(Cl)c1 (centres undefined)	> 41.3
COC(=O)c1ccc(NC(=O)N(c2ccccc2)c2ccccc2)cc1	0.7 (≈ 2.02 µM)
